Results as given in US7728129B2, “Processes for the preparation of piperazinyl and diazapanyl benzamide derivatives” (Janssen Pharmaceutica NV, priority 2005, dated 2010).
Counter-ions that a name gives are not always drawn.

Test: Hygroscopicity / humidity stability of salts by Dynamic Vapour Sorption (DVS)
Type: physicochemical
Details: solid salt

Structure (SMILES): CC(C)N1CCN(C(=O)c2ccc(CN3CCOCC3)cc2)CC1.O=C(O)/C=C\C(=O)O [(4-Isopropyl-piperazin-1-yl)-(4-morpholin-4-ylmethyl-phenyl)-methanone Bis-maleate Salt]
- hygroscopicity by DVS: hygroscopic

Structure (SMILES): CC(C)N1CCN(C(=O)c2ccc(CN3CCOCC3)cc2)CC1.O=C(O)/C=C/C(=O)O [(4-Isopropyl-piperazin-1-yl)-(4-morpholin-4-ylmethyl-phenyl)-methanone Mono-fumarate Salt]
- relative humidity up to which the salt is stable, by DVS: up to 70%

Structure (SMILES): CC(C)N1CCN(C(=O)c2ccc(CN3CCOCC3)cc2)CC1 [(4-Isopropyl-piperazin-1-yl)-(4-morpholin-4-ylmethyl-phenyl)-methanone Mono-succinate Salt]
- hygroscopicity by DVS (Mono-succinate Salt): non-hygroscopic

Structure (SMILES): CC(C)N1CCN(C(=O)c2ccc(CN3CCOCC3)cc2)CC1 [(4-Isopropyl-piperazin-1-yl)-(4-morpholin-4-ylmethyl-phenyl)-methanone, dihydrobromide semi-hydrate salt]
- relative humidity above which the salt is hygroscopic, by DVS: above 10 % RH

Structure (SMILES): CC(C)N1CCN(C(=O)c2ccc(CN3CCOCC3)cc2)CC1 [(4-Isopropyl-piperazin-1-yl)-(4-morpholin-4-ylmethyl-phenyl)-methanone, dihydrochloride monohydrate salt]
- hygroscopicity by DVS: hygroscopic
